In one assay the target is T1, hAChE (Homo sapiens, UniProt P22303).
T1 construct: made in house
The assay is described as follows: Recombinant hAChE inhibition, Ellman's buffer. It is filed as biochemical. The protocol: (§1) Recombinant hAChE and hBChE were produced and purified as previously described. Test compounds were dissolved in methanol 100 % to prepare stock solutions at 40 mM and subsequently diluted in water to reach the desired concentrations. Recombinant hAChE and hBChE activities were measured in presence of appropriate compound concentrations by spectrophotometry at 412 nm and 25 °C in a 1 mL cuvette containing Ellman’s buffer (0.5 mM DTNB, 0.1% BSA, 0.1 M phosphate, pH 7.4). Measurements were performed at least in duplicate for each tested concentration and final methanol concentrations were kept below 5%.
A general note: Ellman's reagent forms a yellow product with free thiols.

The target in a further assay is T2, hBChE (Homo sapiens, UniProt P06276, N45Q/N483Q/N509Q/N514Q).
T2 construct: made in house
T2 sequence (P06276 29-557 N45Q/N483Q/N509Q/N514Q limits assumed): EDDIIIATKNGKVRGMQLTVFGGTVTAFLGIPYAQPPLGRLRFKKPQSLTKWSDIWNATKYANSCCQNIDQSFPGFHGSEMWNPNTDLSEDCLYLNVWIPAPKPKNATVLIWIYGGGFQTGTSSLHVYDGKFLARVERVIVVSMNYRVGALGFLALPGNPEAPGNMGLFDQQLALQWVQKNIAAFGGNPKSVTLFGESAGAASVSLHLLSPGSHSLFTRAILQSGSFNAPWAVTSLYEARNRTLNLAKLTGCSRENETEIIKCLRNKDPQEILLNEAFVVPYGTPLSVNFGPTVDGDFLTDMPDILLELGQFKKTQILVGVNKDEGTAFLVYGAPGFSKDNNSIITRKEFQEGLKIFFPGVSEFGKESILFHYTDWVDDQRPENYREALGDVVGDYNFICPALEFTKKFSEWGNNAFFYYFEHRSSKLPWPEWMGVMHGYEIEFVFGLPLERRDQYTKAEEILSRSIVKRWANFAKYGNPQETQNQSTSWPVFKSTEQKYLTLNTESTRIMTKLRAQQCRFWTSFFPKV
The assay is described as follows: Recombinant hBChE inhibition, Ellman's buffer. In kind it is biochemical. The protocol:
as §1

A short description of assay [1]: Oxygen radical absorbance capacity (ORAC-FL) assay. The settings on record: for ROO• radical scavenging: ORAC-FL; for ORAC-FL Index: relative Trolox equivalent ORAC value.
Assay [2] concerns the target T3, eeAChE (electric eel acetylcholinesterase) (Electrophorus electricus, UniProt O42275).
T3 construct: Eel acetylcholinesterase (eeAChE, E.C. 3.1.1.7, from Electrophorus electricus); purchased Sigma Aldrich
The assay is described as follows: eeAChE inhibition, Ellman's method. It is filed as biochemical.
Protocol: The eeAChE and eqBChE inhibitory activities of the compounds under study were determined following the Ellman’s method [32, 33]
Substrate solutions (ATCI or BCTI) were prepared in deionized water (conductivity ˂ 0.1 µS.cm-
Evaluation of eel acetylcholinesterase and equine butyrylcholinesterase inhibitory
The eeAChE and eqBChE inhibitory activities of the compounds under study were evaluated following the Ellman’s method [1, 2]. Briefly, a mixture containing sodium phosphate buffer, enzyme (final concentration: eeAChE 0.05 U/mL and eeBChE 0.05 U/mL), DTNB (final concentration: 400 µM) and the test compounds/reference inhibitors were preincubated for 5 minutes at 30 °C in a 96-well microplate (BRANDplates, pureGradeTM, BRAND GMBH, Wertheim, Germany). In control experiments, sodium phosphate buffer was used instead of the
ºC in a microplate reader (BioTek Synergy HT from BioTek Instruments, Winooski, VT, USA).
The rates of the substrate enzymatic hydrolysis were determined, normalized and plotted against the respective inhibitor concentration. IC50 values were obtained from the dose-response curves
and were expressed as mean ± standard deviation. IC50 values were determined in at least three
independent experiments, each performed at least in triplicates.

A further assay deals with T4, hMAO-B (Homo sapiens, UniProt P27338).
T4 sequence (P27338 1-520): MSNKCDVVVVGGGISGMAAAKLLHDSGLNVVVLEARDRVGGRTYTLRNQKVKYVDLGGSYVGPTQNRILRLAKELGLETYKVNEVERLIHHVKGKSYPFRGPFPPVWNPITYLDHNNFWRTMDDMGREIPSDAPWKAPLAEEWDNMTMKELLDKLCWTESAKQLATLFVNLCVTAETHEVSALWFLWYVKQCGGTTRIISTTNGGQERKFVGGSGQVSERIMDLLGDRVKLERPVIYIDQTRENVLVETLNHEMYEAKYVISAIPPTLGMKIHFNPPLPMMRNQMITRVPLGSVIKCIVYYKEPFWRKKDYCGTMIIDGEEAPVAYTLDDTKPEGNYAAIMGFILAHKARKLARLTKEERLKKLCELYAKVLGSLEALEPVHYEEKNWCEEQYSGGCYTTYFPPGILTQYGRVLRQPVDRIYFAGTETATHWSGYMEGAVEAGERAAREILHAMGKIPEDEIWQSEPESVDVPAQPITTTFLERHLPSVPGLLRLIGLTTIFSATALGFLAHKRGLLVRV
In words: biochemical. Details: purchased Sigma Aldrich; host or cells: insect cells (BTI-TN-5B1-4), baculovirus.

The target of the next assay is T5, hMAO-A (Homo sapiens, UniProt P21397).
T5 construct: purchased Sigma Aldrich; host or cells: insect cells (BTI-TN-5B1-4), baculovirus
T5 sequence (P21397 1-527): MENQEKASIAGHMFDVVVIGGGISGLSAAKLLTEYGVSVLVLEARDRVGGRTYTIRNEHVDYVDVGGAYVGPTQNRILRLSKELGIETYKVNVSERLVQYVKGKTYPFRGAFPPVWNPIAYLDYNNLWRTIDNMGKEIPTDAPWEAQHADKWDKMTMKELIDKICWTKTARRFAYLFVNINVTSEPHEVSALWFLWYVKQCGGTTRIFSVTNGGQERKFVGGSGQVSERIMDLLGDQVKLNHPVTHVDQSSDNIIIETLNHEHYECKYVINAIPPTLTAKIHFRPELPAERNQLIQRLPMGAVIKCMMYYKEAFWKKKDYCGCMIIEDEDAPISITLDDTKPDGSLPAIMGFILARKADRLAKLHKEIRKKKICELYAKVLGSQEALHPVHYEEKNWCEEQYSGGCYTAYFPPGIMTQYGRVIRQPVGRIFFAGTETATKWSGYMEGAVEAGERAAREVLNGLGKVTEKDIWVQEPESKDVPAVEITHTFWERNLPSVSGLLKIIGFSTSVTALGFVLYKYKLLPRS
The assay is described as follows: hMAO-A inhibition, kynuramine substrate. It is filed as biochemical.

For orientation: IC50 means the concentration that inhibits the measured activity by half.

T1 sequence (P22303 32-574 limits assumed): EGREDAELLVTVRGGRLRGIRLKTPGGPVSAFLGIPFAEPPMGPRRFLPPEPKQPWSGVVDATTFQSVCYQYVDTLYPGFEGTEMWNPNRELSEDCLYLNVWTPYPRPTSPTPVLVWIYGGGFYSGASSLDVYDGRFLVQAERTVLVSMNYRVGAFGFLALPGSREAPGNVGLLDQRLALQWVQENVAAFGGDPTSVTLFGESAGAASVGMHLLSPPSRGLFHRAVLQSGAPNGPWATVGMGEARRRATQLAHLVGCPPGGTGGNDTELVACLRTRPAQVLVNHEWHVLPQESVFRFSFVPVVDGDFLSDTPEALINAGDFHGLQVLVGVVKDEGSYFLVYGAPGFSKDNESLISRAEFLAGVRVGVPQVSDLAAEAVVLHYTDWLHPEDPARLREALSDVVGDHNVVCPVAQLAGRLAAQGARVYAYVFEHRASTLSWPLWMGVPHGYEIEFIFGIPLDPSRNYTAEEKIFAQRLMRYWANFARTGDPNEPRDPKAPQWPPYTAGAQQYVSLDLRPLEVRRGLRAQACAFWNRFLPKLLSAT
T3 sequence (O42275 24-633): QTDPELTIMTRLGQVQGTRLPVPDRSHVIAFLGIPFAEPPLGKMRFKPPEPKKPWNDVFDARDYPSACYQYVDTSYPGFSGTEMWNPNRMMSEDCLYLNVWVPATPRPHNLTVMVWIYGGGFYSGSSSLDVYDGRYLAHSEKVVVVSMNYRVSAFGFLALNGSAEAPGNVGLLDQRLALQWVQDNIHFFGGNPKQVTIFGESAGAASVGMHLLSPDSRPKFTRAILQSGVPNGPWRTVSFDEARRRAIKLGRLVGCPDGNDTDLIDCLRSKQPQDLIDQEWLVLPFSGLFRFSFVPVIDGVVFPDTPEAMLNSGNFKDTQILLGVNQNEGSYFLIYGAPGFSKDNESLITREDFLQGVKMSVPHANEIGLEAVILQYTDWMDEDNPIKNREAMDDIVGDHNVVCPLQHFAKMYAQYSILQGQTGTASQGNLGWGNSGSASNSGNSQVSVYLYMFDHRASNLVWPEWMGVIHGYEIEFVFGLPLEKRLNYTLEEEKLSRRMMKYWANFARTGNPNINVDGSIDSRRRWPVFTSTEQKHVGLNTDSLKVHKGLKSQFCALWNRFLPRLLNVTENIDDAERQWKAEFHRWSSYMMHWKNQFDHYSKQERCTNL
Protocol for hMAO-A: (§2) The inhibitory activity of lipophilic TPP^+ cations on hMAO-A and hMAO-B was studied using an experimental protocol described elsewhere [29, 40]
(§3) Evaluation of human monoamine oxidase (hMAO) inhibitory activity The human monoamine oxidase (hMAO) inhibitory outline was assessed in microsomal MAO isoforms prepared from insect cells (BTI-TN-5B1-4) infected with recombinant baculovirus containing cDNA inserts for hMAO-A or hMAO-B an d by measuring the enzymatic conversion rates of kynuramine into 4-hydroxyquinoline. The appropriate amounts of hMAO-A and hMAO-B were adjusted to obtain, in our experimental conditions, the same maximum
(§4) All assays were performed in sodium phosphate buffer solution 50 mM pH 7.4.
(§5) The compounds under study and reference inhibitors were pre-incubated at 37 °C for 10
(§6) concentration: 2×Km) in 96-well microplates (BRANDplates, pureGradeTM, BRAND GMBH, Wertheim, Germany). Then, the reaction was started with the addition of hMAO-A or hMAO-B.
(§7) Initial velocities were determined spectrophotometrically in a microplate reader (BioTek Synergy HT from BioTek Instruments, Winooski, VT, USA) at 37 °C by measuring the formation of 4-
(§8) The initial velocities, obtained from the linear phase of product formation, were normalized and plotted against the respective inhibitor concentration. IC50 values were obtained from dose-response curves and were expressed as mean ± standard deviation. IC50 values were determined from at least three independent experiments, each performed in triplicate.
Protocol for hMAO-B: as §2, §3, §4, §5, §6, §7, §8

On to `O=C(/C=C/C=C/c1ccc2c(c1)OCO2)NCCCC[P+](c1ccccc1)(c1ccccc1)c1ccccc1.[Br-]` [Compound 2, (4-((2E,4E)-5-(Benzo[d][1,3]dioxol-5-yl)penta-2,4-dienamido)butyl)triphenylphosphonium bromide], for which the IC50 on hAChE was 11 ± 1 µM; on hBChE it was 0.2 ± 0.04 µM; in assay [2], 6.39 ± 0.28 µM; against hMAO-B, 12.4 ± 1.9 µM; against hMAO-A, 0.888 ± 0.022 µM. Also, at hBChE, the “SI (2): hBChE selectivity index = IC50(hAChE)/IC50(hBChE)” value worked out at 55. Besides, in assay [1], the “ROO• radical scavenging” value is “unable to scavenge ROO• radicals”. Besides, on hMAO-B, the “SI (3): hMAO-B selectivity index = IC50 (hMAO-A)/IC50 (hMAO-B)” value (“SI (3): hMAO-B selectivity index = IC50” for short) was 0.07.
As to `O=C(/C=C/C=C/c1ccc2c(c1)OCO2)NCCCCCC[P+](c1ccccc1)(c1ccccc1)c1ccccc1.[Br-]` [Compound 3, (6-((2E,4E)-5-(Benzo[d][1,3]dioxol-5-yl)penta-2,4-dienamido)hexyl)triphenylphosphonium bromide], the 50% inhibitory concentration (IC50) stood at 2 ± 0.2 µM on hAChE; 3 ± 0.4 µM on hBChE; 5.74 ± 0.32 µM in assay [2]; 4.64 ± 0.29 µM at hMAO-B; 1.23 ± 0.13 µM at hMAO-A. Also, the “SI (2): hBChE selectivity index = IC50(hAChE)/IC50(hBChE)” value at hBChE is given as 0.67. The “ROO• radical scavenging” value in assay [1] is reported as “unable to scavenge ROO• radicals”. At hMAO-B, the “SI (3): hMAO-B selectivity index = IC50” value was determined as 0.26.
Turning to `O=C(/C=C/C=C/c1ccc(O)c(O)c1)NCCCC[P+](c1ccccc1)(c1ccccc1)c1ccccc1.[Br-]` [Compound 4, (4-((2E,4E)-5-(3,4-Dihydroxyphenyl)penta-2,4-dienamido)butyl)triphenylphosphonium bromide], the IC50 at hAChE was determined as 22 ± 2 µM; on hBChE, 3 ± 0.2 µM; in assay [2], 2.23 ± 0.12 µM; against hMAO-B it was 13.5 ± 1.1 µM; at hMAO-A, 5.17 ± 0.54 µM. Besides, the “SI (2): hBChE selectivity index = IC50(hAChE)/IC50(hBChE)” value on hBChE stood at 7.3. For the same compound, the “ORAC-FL Index” value in assay [1] was found to be 3.3 ± 0.1. At hMAO-B, the “SI (3): hMAO-B selectivity index = IC50” value was 0.38.
For `O=C(/C=C/C=C/c1ccc(O)c(O)c1)NCCCCCC[P+](c1ccccc1)(c1ccccc1)c1ccccc1.[Br-]` [Compound 5, (6-((2E,4E)-5-(3,4-Dihydroxyphenyl)penta-2,4-dienamido)hexyl)triphenylphosphonium bromide], the half-maximal inhibitory concentration (IC50) on hAChE was 9 ± 0.5 µM; at hBChE it was 23 ± 2 µM; in assay [2], 2.14 ± 0.06 µM; at hMAO-B it was 10.9 ± 0.7 µM; against hMAO-A it was 2.17 ± 0.28 µM. Also, at hBChE, the “SI (2): hBChE selectivity index = IC50(hAChE)/IC50(hBChE)” value is on record as 0.39. Besides, the “ORAC-FL Index” value in assay [1] is listed as 3.1 ± 0.3. Also, on hMAO-B, the “SI (3): hMAO-B selectivity index = IC50” value worked out at 0.20.
